The values that follow come from ChEMBL document CHEMBL1201862, “PubChem BioAssay data set” (2004).

What all share (experiment): DTP human tumour cell line panel, 48 h
Assay [1] deals with BT-549.
The subject of assay [2] is COLO 205.
For assay [3], the system named is DU-145.
Assay [4] relates to HCT-116.
Assay [5] concerns HOP-62.
Assay [6] concerns HT-29.
The test system of assay [7] is KM12.
The subject of assay [8] is M14.
In assay [9] the test system is MDA-MB-435.
Assay [10] deals with Malme-3M.
Assay [11] relates to NCI-H226.
The subject of assay [12] is NCI-H460.
The test system of assay [13] is NCI-H522.
Assay [14] has as its system OVCAR-5.
The test system of assay [15] is RPMI-8226.
The test system of assay [16] is SF-268.
In assay [17] the test system is SN12C.
For assay [18], the system named is SW-620.
Assay [19] concerns T47D.
In assay [20] the test system is U-251.

Broadly, the GI50 is the concentration giving 50% growth inhibition.

SMILES strings stand for the structures.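 Five compound concentrations were applied to cells in 96-well plates for 48 hours; endpoints were derived by simple linear interpolation of the resulting dose-response curve. Abbreviation: GI50, concentration required for 50% inhibition of growth.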 The source made the active and inactive calls. Rule as the data show it: active = GI50 up to about 1.1 µM and inactive = higher. Bounds are passed on as bounds.

Consider `O=C1C(Br)=C(c2ccccc2)C(c2ccccc2)=C1c1ccccc1`, for which the GI50 in assay [1] is 3.6 µM (inactive); in assay [2] it was 1.87 µM (inactive); in [3] it was 13.2 µM (inactive); in assay [4], 1.9 µM (inactive); in [5] it was 14.2 µM (inactive); in [6], 2.28 µM (inactive). For the same molecule, the GI50 is 5.94 µM (inactive) in assay [7]; 2.15 µM (inactive) in assay [8]; 3.82 µM (inactive) in [9]; 1.75 µM (inactive) in [10]; 8.43 µM (inactive) in assay [11]; 4.83 µM (inactive) in assay [12]. Besides, the GI50 in [13] is 0.753 µM (active); in assay [14], 12 µM (inactive); in assay [15], 1.45 µM (inactive); in assay [16], 3.44 µM (inactive); in [17], 1.95 µM (inactive); in assay [18], 1.77 µM (inactive). The GI50 in [19] was 2.37 µM (inactive); in assay [20], 3.36 µM (inactive).
Consider `Cc1cc2sc(C)[n+](CCCOS(=O)(=O)[O-])c2cc1C`, for which the GI50 in assay [1], in [2], in assay [3], in assay [4], in assay [5] and in assay [6] was > 100 µM (inactive) throughout. The GI50 in assay [7] is > 100 µM (inactive); in assay [8], > 100 µM (inactive); in [9], > 100 µM (inactive); in [10], 79.6 µM (inactive); in assay [11], > 100 µM (inactive); in [12], > 100 µM (inactive). Also, the GI50 in assay [13] is 40.6 µM (inactive); in assay [14], > 100 µM (inactive); in [15], 53 µM (inactive); in [16], 62.5 µM (inactive); in [17], > 100 µM (inactive); in assay [18], > 100 µM (inactive). Besides, the GI50 in assay [19] is 58.6 µM (inactive); in [20], > 100 µM (inactive).
Consider `C#CCNC(CCCNC(=N)N)C(=O)O` (stereo unspecified), for which the GI50 in assay [1], in [2], in assay [3], in assay [4], in assay [5] and in assay [6] was > 100 µM (inactive) throughout. Further, the GI50 in assay [7], in assay [8], in assay [9], in assay [10], in [11] and in [12] was > 100 µM (inactive) each time. Besides, the GI50 in assay [13], in assay [14], in assay [15], in assay [16], in assay [18] and in [19] was > 100 µM (inactive) in each case. For the same molecule, in assay [20], the GI50 was > 100 µM (inactive).
Regarding `CC1S/C(=N/c2nnc(-c3ccccc3)o2)NC1=O` (stereo unspecified), the GI50 in [1] is 71.4 µM (inactive); in assay [2], 47.1 µM (inactive); in assay [3], 81.3 µM (inactive); in [4] it was 17.7 µM (inactive); in [5], 26.7 µM (inactive); in [6] it was 27.7 µM (inactive). Also, the GI50 in assay [7] was 46.1 µM (inactive); in [8], 21.5 µM (inactive); in [9], 39.1 µM (inactive); in assay [10] it was 41.4 µM (inactive); in assay [11], > 100 µM (inactive); in [13], 28 µM (inactive). Besides, the GI50 was > 100 µM (inactive) in [14]; 49 µM (inactive) in [15]; 34.5 µM (inactive) in assay [16]; 36.1 µM (inactive) in assay [17]; 46 µM (inactive) in [18]; 61.1 µM (inactive) in assay [19]. In addition, the GI50 in assay [20] is 26.6 µM (inactive).
Regarding `CC[n+]1c(/C=C/c2ccc(N(CCCl)CCCl)cc2)ccc2cc(NC(=O)/C=C/c3ccccc3)ccc21`, the 50% growth inhibitory concentration (GI50) is 0.628 µM (active) in [1]; 0.104 µM (active) in [2]; 0.288 µM (active) in [3]; 0.317 µM (active) in [4]; 0.318 µM (active) in [5]; 0.344 µM (active) in assay [6]. The GI50 in assay [7] was 0.423 µM (active); in [8], 0.436 µM (active); in assay [9] it was 0.288 µM (active); in [10], 0.291 µM (active); in assay [11] it was 0.456 µM (active); in [12], 0.245 µM (active). In addition, the GI50 in assay [13] was 0.218 µM (active); in assay [14], 0.748 µM (active); in assay [15] it was 0.218 µM (active); in [16], 0.393 µM (active); in [17], 0.261 µM (active); in assay [18], 0.208 µM (active). For the same molecule, the GI50 in assay [19] was 0.249 µM (active); in assay [20], 0.132 µM (active).
As for `CC1(C)OCC2OC(n3cnc4c(N)nc(Cl)nc43)C(OS(C)(=O)=O)C2O1` (stereo unspecified), the GI50 in assay [1], in assay [2], in assay [3], in assay [4], in assay [5] and in [6] was > 100 µM (inactive) throughout. Besides, the GI50 in assay [7], in assay [8], in assay [9], in assay [10], in assay [11] and in [12] was > 100 µM (inactive) throughout. The GI50 in assay [13], in assay [14], in [15], in [16], in assay [17] and in [18] was > 100 µM (inactive) each time. In addition, the GI50 in assay [19] and in assay [20] was > 100 µM (inactive) in each case.
On to `O=c1c2cc([N+](=O)[O-])ccc2oc2nc3n(c(=O)c12)CCCS3`, for which the GI50 in assay [1] is > 100 µM (inactive); in assay [2], > 100 µM (inactive); in [3], > 100 µM (inactive); in assay [4], > 100 µM (inactive); in assay [5] it was 40.9 µM (inactive); in [7], > 100 µM (inactive). Further, the GI50 in assay [8], in assay [9], in assay [10], in [11], in assay [12] and in assay [13] was > 100 µM (inactive) in each case. Besides, the GI50 in assay [14], in assay [15], in assay [16], in assay [17], in [18] and in [19] was > 100 µM (inactive) in each case. Besides, in assay [20], the GI50 was > 100 µM (inactive).
`O=C(O)[C@H](c1ccccc1)[C@@H](C(=O)O)c1ccccc1`: the GI50 in assay [1], in assay [2], in [3], in assay [4], in [5] and in assay [6] was > 100 µM (inactive) throughout. For the same molecule, the GI50 in assay [7], in [8], in assay [9], in assay [10], in assay [11] and in [12] was > 100 µM (inactive) in each case. Besides, the GI50 in assay [13], in [14], in assay [15], in [16], in assay [17] and in assay [18] was > 100 µM (inactive) in each case. The GI50 in assay [19] and in [20] was > 100 µM (inactive) each time.
In the case of `COC(=O)C1C(C(=O)OC)C2(OC(c3ccc(Cl)cc3)=CC2=O)C12OC(c1ccc(Cl)cc1)=CC2=O` (stereo unspecified), the GI50 is 16.4 µM (inactive) in [1]; 16.7 µM (inactive) in [2]; 29.9 µM (inactive) in [3]; 14.9 µM (inactive) in [4]; > 10 µM (inactive) in assay [5]; 16.7 µM (inactive) in [6]. Also, the GI50 in assay [8] was 19.1 µM (inactive); in [9], 22.5 µM (inactive); in assay [10], 17.3 µM (inactive); in [11], 28.4 µM (inactive); in [12], 19.8 µM (inactive); in [13], 18.4 µM (inactive). Further, the GI50 in assay [14] is 24.3 µM (inactive); in assay [15], 7.21 µM (inactive); in [16], 24.5 µM (inactive); in [17], 20.5 µM (inactive); in assay [18], 32.7 µM (inactive); in assay [19], 14.8 µM (inactive). For the same molecule, the GI50 in assay [20] is 32.1 µM (inactive).
As to `Nc1nc(N)c2nc(CN(C=O)c3ccc(C(=O)O)cc3)cnc2n1`, the GI50 is > 26.6 µM (inactive) in assay [1]; > 100 µM (inactive) in [2]; 7.38 µM (inactive) in assay [3]; 3.84 µM (inactive) in [4]; 14 µM (inactive) in [5]; > 100 µM (inactive) in [6]. Also, the GI50 in assay [7] was 6.64 µM (inactive); in assay [8] it was 7.43 µM (inactive); in [9], 17.9 µM (inactive); in assay [10] it was 8.18 µM (inactive); in assay [11], > 100 µM (inactive); in assay [12], 7.55 µM (inactive). Also, the GI50 in [13] is 0.438 µM (active); in [14], > 70 µM (inactive); in [15], 14.7 µM (inactive); in assay [16], 9.68 µM (inactive); in assay [17], 52.6 µM (inactive); in assay [18], 17 µM (inactive). For the same molecule, the GI50 is > 100 µM (inactive) in [19] and > 93.5 µM (inactive) in [20].
